# Measurements: patent publication US11325899B2, “Benzofurane and benzothiophene derivatives as PGE2 receptor modulators” (IDORSIA PHARMACEUTICALS LTD, priority 2017, dated 2022)
# Target: T1, EP2 receptor (Homo sapiens, UniProt P43116)
# T1 construct: SF295 glioblastoma cells express high endogenous EP2 and no EP4; host or cells: SF295 glioblastoma cells
# Test: hEP2 cAMP assay (SF295 glioblastoma cells, HTRF cAMP, PGE2 stimulation)
# Assay type: cell-based
# Conditions: antagonistic activity
# Procedure, shortened: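 HTRF cAMP readout gave % cAMP relative to DMSO, fitted to IC50 with duplicate points. Compounds were preincubated 45 min at room temperature with EP2-expressing, EP4-negative SF295 cells in IBMX (2 mM)-containing buffer before a 30 min challenge with PGE2 at 75 nM final, its EC80.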
# T1 sequence (P43116 whole entry): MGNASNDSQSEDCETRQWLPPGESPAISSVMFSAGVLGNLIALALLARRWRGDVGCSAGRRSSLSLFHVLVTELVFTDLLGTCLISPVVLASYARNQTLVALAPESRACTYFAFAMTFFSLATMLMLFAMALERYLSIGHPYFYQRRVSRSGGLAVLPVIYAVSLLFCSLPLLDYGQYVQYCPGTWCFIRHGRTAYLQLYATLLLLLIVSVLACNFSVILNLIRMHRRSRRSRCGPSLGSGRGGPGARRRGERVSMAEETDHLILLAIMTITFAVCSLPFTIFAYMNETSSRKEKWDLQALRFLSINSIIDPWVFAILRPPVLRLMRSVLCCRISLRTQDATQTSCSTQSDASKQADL
row,IC50,SMILES
1,10 nM,"Cc1sc2ccccc2c1CCNc1cc(-c2ccc(C(=O)O)c(SC(C)C)c2)ncn1 [Example 91, 2-Isopropylsulfanyl-4-{6-[2-(2-methyl-benzo[b]thiophen-3-yl)-ethylamino]-pyrimidin-4-yl}-benzoic acid]"
2,35 nM,"Cc1sc2c(C)cccc2c1CCNc1cc(-c2ccc(C(=O)O)c(SC(C)C)c2)ncn1 [Example 90, 4-{6-[2-(2,7-Dimethyl-benzo[b]thiophen-3-yl)-ethylamino]-pyrimidin-4-yl}-2-isopropylsulfanyl-benzoic acid]"
3,21 nM,"CSc1cc(-c2cc(NCCc3c(C)oc4c(C)cc(F)cc34)ncn2)ccc1C(=O)O [Example 16, 4-{6-[2-(5-Fluoro-2,7-dimethyl-benzofuran-3-yl)-ethylamino]-pyrimidin-4-yl}-2-methylsulfanyl-benzoic acid]"
4,7 nM,"CCOc1cc(-c2cc(NCCc3c(C#N)sc4c(C)cc(F)cc34)ncn2)ccc1C(=O)O [Example 53, 4-{6-[2-(2-Cyano-5-fluoro-7-methyl-benzo[b]thiophen-3-yl)-ethylamino]-pyrimidin-4-yl}-2-ethoxy-benzoic acid]"
5,17 nM,"CCOc1cc(-c2cc(NCCc3c(Br)sc4c(C)cc(F)cc34)ncn2)ccc1C(=O)O [Example 58, 4-{6-[2-(2-Bromo-5-fluoro-7-methyl-benzo[b]thiophen-3-yl)-ethylamino]-pyrimidin-4-yl}-2-ethoxy-benzoic acid]"
6,326 nM,"CCc1cc(-c2cc(NCCc3c(C)sc4c(C)cc(F)cc34)ncn2)cc(C)c1CC(=O)O [Example 194, (2-Ethyl-4-{6-[2-(5-fluoro-2,7-dimethyl-benzo[b]thiophen-3-yl)-ethylamino]-pyrimidin-4-yl}-6-methyl-phenyl)-acetic acid]"

# Second part, the compound before the results:
row,SMILES,IC50
1,"Cc1sc2c(C)cc(F)cc2c1CCNc1cc(-c2cc3c(C(=O)O)cccc3[nH]2)ncn1 [Example 82, 2-{6-[2-(5-Fluoro-2,7-dimethyl-benzo[b]thiophen-3-yl)-ethylamino]-pyrimidin-4-yl}-1H-indole-4-carboxylic acid]",21 nM
2,"CCSc1cc(-c2cc(NCCc3c(C)sc4ccccc34)ncn2)ccc1C(=O)O [Example 43, 2-Ethylsulfanyl-4-{6-[2-(2-methyl-benzo[b]thiophen-3-yl)-ethylamino]-pyrimidin-4-yl}-benzoic acid]",4 nM
3,"Cc1sc2c(C)cc(F)cc2c1CCNc1cc(-c2cc(C(F)(F)F)c(C(=O)O)s2)ncn1 [Example 46, 5-{6-[2-(5-Fluoro-2,7-dimethyl-benzo[b]thiophen-3-yl)-ethylamino]-pyrimidin-4-yl}-3-trifluoromethyl-thiophene-2-carboxylic acid]",31 nM
4,"CSc1cc(-c2cc(NCCc3c(C)sc4c(C)cccc34)ncn2)cc(Cl)c1C(=O)O [Example 50, 2-Chloro-4-{6-[2-(2,7-dimethyl-benzo[b]thiophen-3-yl)-ethylamino]-pyrimidin-4-yl}-6-methylsulfanyl-benzoic acid]",13 nM
5,"CCOc1cc(-c2cc(NCCc3c(C)oc4c(OC)ccc(F)c34)ncn2)ccc1C(=O)O [Example 67, 2-Ethoxy-4-{6-[2-(4-fluoro-7-methoxy-2-methyl-benzofuran-3-yl)-ethylamino]-pyrimidin-4-yl}-benzoic acid]",142 nM
6,"CCCc1cc(-c2cc(NCCc3c(C)sc4c(C)cc(F)cc34)ncn2)ccc1C(=O)O [Example 45, 4-{6-[2-(5-Fluoro-2,7-dimethyl-benzo[b]thiophen-3-yl)-ethylamino]-pyrimidin-4-yl}-2-propyl-benzoic acid]",48 nM
7,"COc1ccc(F)c2c(CCNc3cc(-c4ccc(C(=O)O)c(OC5CC5)c4)ncn3)c(C)sc12 [Example 84, 2-Cyclopropoxy-4-{6-[2-(4-fluoro-7-methoxy-2-methyl-benzo[b]thiophen-3-yl)-ethylamino]-pyrimidin-4-yl}-benzoic acid]",21 nM
8,"Cc1cc(-c2cc(NCCc3c(C)oc4c(C)cc(F)cc34)ncn2)sc1C(=O)O [Example 2, 5-{6-[2-(5-Fluoro-2,7-dimethyl-benzofuran-3-yl)-ethylamino]-pyrimidin-4-yl}-3-methyl-thiophene-2-carboxylic acid]",23 nM
9,"COc1cc(Cl)cc2c(CCNc3cc(-c4ccc(C(=O)O)c(OC5CC5)c4)ncn3)c(C)oc12 [Example 83, 4-{6-[2-(5-Chloro-7-methoxy-2-methyl-benzofuran-3-yl)-ethylamino]-pyrimidin-4-yl}-2-cyclopropoxy-benzoic acid]",44 nM
